The record followed here is ChEMBL document CHEMBL5518248, “Design, Synthesis, and Biological Evaluation of Novel Arylomycins against Multidrug-Resistant Gram-Negative Bacteria” (J Med Chem, 2024).

What all share (format): functional
Common to all, as to details: time 18-20 hrs

For assay [1], the system named is Escherichia coli. The assay can be described thus: Antibacterial activity against Escherichia coli ATCC 35218 assessed as inhibition of bacterial growth measured after 18 to 20 hrs by broth microdilution method.
In assay [2] the test system is Acinetobacter baumannii. The assay can be described thus: Antibacterial activity against Acinetobacter baumannii 17-8 assessed as inhibition of bacterial growth measured after 18 to 20 hrs by broth microdilution method.
The test system of assay [3] is Escherichia coli. The experiment in a line: Antibacterial activity against Escherichia coli 14-2 assessed as inhibition of bacterial growth measured after 18 to 20 hrs by broth microdilution method. Background: In broth dilution the organism is exposed to a series of concentrations in liquid medium.
In assay [4] the test system is Klebsiella pneumoniae. The experiment in a line: Antibacterial activity against Klebsiella pneumoniae 15-1 assessed as inhibition of bacterial growth measured after 18 to 20 hrs by broth microdilution method.
Assay [5] deals with Acinetobacter baumannii. The experiment in a line: Antibacterial activity against Acinetobacter baumannii 17-2 assessed as inhibition of bacterial growth measured after 18 to 20 hrs by broth microdilution method.
Assay [6] deals with Pseudomonas aeruginosa. The experiment in a line: Antibacterial activity against Pseudomonas aeruginosa 19-5 assessed as inhibition of bacterial growth measured after 18 to 20 hrs by broth microdilution method.
Assay [7] deals with Klebsiella pneumoniae. The assay can be described thus: Antibacterial activity against Klebsiella pneumoniae 15-5 assessed as inhibition of bacterial growth measured after 18 to 20 hrs by broth microdilution method.
In assay [8] the test system is Escherichia coli. The assay can be described thus: Antibacterial activity against Escherichia coli 14-4 assessed as inhibition of bacterial growth measured after 18 to 20 hrs by broth microdilution method.
The subject of assay [9] is Pseudomonas aeruginosa. The experiment in a line: Antibacterial activity against Pseudomonas aeruginosa 17-1 assessed as inhibition of bacterial growth measured after 18 to 20 hrs by broth microdilution method.
In assay [10] the test system is Klebsiella pneumoniae. The assay can be described thus: Antibacterial activity against Klebsiella pneumoniae 15-4 assessed as inhibition of bacterial growth measured after 18 to 20 hrs by broth microdilution method.

In general, MIC refers to the lowest concentration found to suppress growth. With `Cc1nc(-c2ccc(C(C)(C)C)cc2)ncc1C(=O)N[C@@H](CCN)C(=O)N(C)[C@@H]1C(=O)N[C@@H](C)C(=O)N[C@H](C(=O)NCC=O)Cc2ccc(OCCN)c(c2)-c2cc1ccc2OCCN.Cl.Cl.Cl.Cl`, the MIC in assay [1] was at most 0.03 µg/mL; in assay [2], 2 µg/mL; in assay [3], at most 0.03 µg/mL; in assay [4], at most 0.03 µg/mL; in assay [5], 4 µg/mL; in assay [6], 64 µg/mL. The MIC was at most 0.03 µg/mL in assay [7], 0.06 µg/mL in [8], over 64 µg/mL in assay [9] and 0.125 µg/mL in assay [10].

For the compound `Cc1nc(-c2ccc(CSSCC[Si](C)(C)C)cc2)ncc1C(=O)N[C@@H](CCN)C(=O)N(C)[C@@H]1C(=O)N[C@@H](C)C(=O)N[C@H](C(=O)NCC#N)Cc2ccc(OCCN)c(c2)-c2cc1ccc2OCCN.O=C(O)C(F)(F)F.O=C(O)C(F)(F)F.O=C(O)C(F)(F)F.O=C(O)C(F)(F)F`, the minimal inhibitory concentration (MIC) came to 0.25 µg/mL in [1]; 1 µg/mL in [2]; 0.5 µg/mL in [3]; 1 µg/mL in [4]; 1 µg/mL in [5]; 4 µg/mL in assay [6]. The MIC in assay [7] was determined as 1 µg/mL; in assay [8] it was 1 µg/mL; in assay [9], 4 µg/mL; in assay [10], 1 µg/mL.

For `Cc1nc(-c2ccc(CSSC3CCCCC3)cc2)ncc1C(=O)N[C@@H](CCN)C(=O)N(C)[C@@H]1C(=O)N[C@@H](C)C(=O)N[C@H](C(=O)NCC#N)Cc2ccc(OCCN)c(c2)-c2cc1ccc2OCCN.O=C(O)C(F)(F)F.O=C(O)C(F)(F)F.O=C(O)C(F)(F)F.O=C(O)C(F)(F)F`, the MIC is at most 0.03 µg/mL in assay [1]; 0.5 µg/mL in assay [2]; at most 0.03 µg/mL in assay [3]; 0.5 µg/mL in [4]; 1 µg/mL in [5]; 4 µg/mL in [6]. In addition, the minimal inhibitory concentration (MIC) in [7] stood at 0.25 µg/mL; in assay [8], 0.125 µg/mL; in [9], 4 µg/mL; in assay [10] it was 0.25 µg/mL.

As to `Cc1nc(-c2ccc([C@H](C)SSC(C)(C)C)cc2)ncc1C(=O)N[C@@H](CCN)C(=O)N(C)[C@@H]1C(=O)N[C@@H](C)C(=O)N[C@H](C(=O)NCC#N)Cc2ccc(OCCN)c(c2)-c2cc1ccc2OCCN.O=C(O)C(F)(F)F.O=C(O)C(F)(F)F.O=C(O)C(F)(F)F.O=C(O)C(F)(F)F`, the minimal inhibitory concentration (MIC) is at most 0.03 µg/mL in [1]; 0.25 µg/mL in assay [2]; at most 0.03 µg/mL in [3]; 0.125 µg/mL in [4]; 0.25 µg/mL in assay [5]; 1 µg/mL in assay [6]. The MIC in assay [7] was 0.125 µg/mL; in assay [8], at most 0.03 µg/mL; in [9], 4 µg/mL; in assay [10] it was 0.125 µg/mL.

Regarding `Cc1cc(-c2ncc(C(=O)N[C@@H](CCN)C(=O)N(C)[C@@H]3C(=O)N[C@@H](C)C(=O)N[C@H](C(=O)NCC#N)Cc4ccc(OCCN)c(c4)-c4cc3ccc4OCCN)c(C)n2)ccc1CSSC(C)(C)C.O=C(O)C(F)(F)F.O=C(O)C(F)(F)F.O=C(O)C(F)(F)F.O=C(O)C(F)(F)F`, the MIC in assay [1] was at most 0.03 µg/mL; in assay [2], 1 µg/mL; in assay [3], 0.125 µg/mL; in [4], 0.125 µg/mL; in assay [5], 1 µg/mL; in assay [6] it was 4 µg/mL. Also, the MIC in [7] is 0.25 µg/mL; in assay [8], 0.06 µg/mL; in assay [9], 4 µg/mL; in assay [10], 0.25 µg/mL.

As to `CCCCCSSc1ccc(-c2ncc(C(=O)N[C@@H](CCN)C(=O)N(C)[C@@H]3C(=O)N[C@@H](C)C(=O)N[C@H](C(=O)NCC#N)Cc4ccc(OCCN)c(c4)-c4cc3ccc4OCCN)c(C)n2)cc1.O=C(O)C(F)(F)F.O=C(O)C(F)(F)F.O=C(O)C(F)(F)F.O=C(O)C(F)(F)F`, the MIC in assay [1] stood at 0.5 µg/mL; in [2], 1 µg/mL; in assay [3] it was 0.25 µg/mL; in [4], 1 µg/mL; in assay [5], 2 µg/mL; in [6], 4 µg/mL. In addition, the minimum inhibitory concentration (MIC) in [7] was determined as 0.5 µg/mL; in assay [8], 0.25 µg/mL; in assay [9], 4 µg/mL; in assay [10] it was 0.5 µg/mL.

On to `Cc1nc(-c2ccc(CSSC(C)(C)C)cc2)ccc1C(=O)N[C@@H](CCN)C(=O)N(C)[C@@H]1C(=O)N[C@@H](C)C(=O)N[C@H](C(=O)NCC#N)Cc2ccc(OCCN)c(c2)-c2cc1ccc2OCCN.O=C(O)C(F)(F)F.O=C(O)C(F)(F)F.O=C(O)C(F)(F)F.O=C(O)C(F)(F)F`, for which the MIC was at most 0.03 µg/mL in assay [1]; 1 µg/mL in [2]; 0.25 µg/mL in assay [3]; 0.125 µg/mL in [4]; 1 µg/mL in assay [5]; 8 µg/mL in assay [6]. In addition, the MIC in assay [7] turned out to be 0.06 µg/mL; in [8] it was 0.125 µg/mL; in assay [9] it was 8 µg/mL; in [10], 0.125 µg/mL.

`Cc1nc(-c2ccc(C(C)(C)C)cc2)ncc1C(=O)N[C@@H](CCN)C(=O)N(C)[C@@H]1C(=O)N[C@@H](C)C(=O)N[C@H](C(=O)NNCC#N)Cc2ccc(OCCN)c(c2)-c2cc1ccc2OCCN.Cl.Cl.Cl.Cl`: the MIC was 0.5 µg/mL in [1]; 8 µg/mL in assay [2]; 1 µg/mL in assay [3]; 2 µg/mL in assay [4]; 32 µg/mL in assay [5]; over 64 µg/mL in [6]. The MIC in [7] is 1 µg/mL; in assay [8], 0.5 µg/mL; in assay [9] it was over 64 µg/mL; in assay [10] it was 2 µg/mL.

As to `Cc1nc(-c2ccc(C(C)(C)C)cc2)ncc1C(=O)N[C@@H](CCN)C(=O)N(C)[C@@H]1C(=O)N[C@@H](C)C(=O)N[C@H](C(=O)CC#N)Cc2ccc(OCCN)c(c2)-c2cc1ccc2OCCN.O=C(O)C(F)(F)F.O=C(O)C(F)(F)F.O=C(O)C(F)(F)F.O=C(O)C(F)(F)F`, the MIC is 4 µg/mL in [1]; 16 µg/mL in [2]; 8 µg/mL in [3]; 16 µg/mL in [4]; 16 µg/mL in assay [5]; over 64 µg/mL in assay [6]. The MIC was 16 µg/mL in assay [7], 8 µg/mL in [8], over 64 µg/mL in assay [9] and 16 µg/mL in assay [10].

As for `COCCSSCc1ccc(-c2ncc(C(=O)N[C@@H](CCN)C(=O)N(C)[C@@H]3C(=O)N[C@@H](C)C(=O)N[C@H](C(=O)NCC#N)Cc4ccc(OCCN)c(c4)-c4cc3ccc4OCCN)c(C)n2)cc1.O=C(O)C(F)(F)F.O=C(O)C(F)(F)F.O=C(O)C(F)(F)F.O=C(O)C(F)(F)F`, the MIC in [1] was 0.25 µg/mL; in [2], 2 µg/mL; in [3], 0.5 µg/mL; in assay [4] it was 1 µg/mL; in assay [5], 8 µg/mL; in assay [6], over 64 µg/mL. The MIC is 1 µg/mL in [7], 0.5 µg/mL in assay [8], over 64 µg/mL in [9] and 2 µg/mL in assay [10].

In the case of `Cc1nc(-c2ccc(SC(C)(C)C)cc2)ncc1C(=O)N[C@@H](CCN)C(=O)N(C)[C@@H]1C(=O)N[C@@H](C)C(=O)N[C@H](C(=O)NCC#N)Cc2ccc(OCCN)c(c2)-c2cc1ccc2OCCN.O=C(O)C(F)(F)F.O=C(O)C(F)(F)F.O=C(O)C(F)(F)F.O=C(O)C(F)(F)F`, the MIC is at most 0.03 µg/mL in assay [1]; 1 µg/mL in assay [2]; 0.125 µg/mL in assay [3]; 0.06 µg/mL in assay [4]; 2 µg/mL in assay [5]; 16 µg/mL in assay [6]. Also, the MIC came to 0.06 µg/mL in assay [7], 0.06 µg/mL in [8], 16 µg/mL in [9] and 0.125 µg/mL in assay [10].

With `CSCCSSCc1ccc(-c2ncc(C(=O)N[C@@H](CCN)C(=O)N(C)[C@@H]3C(=O)N[C@@H](C)C(=O)N[C@H](C(=O)NCC#N)Cc4ccc(OCCN)c(c4)-c4cc3ccc4OCCN)c(C)n2)cc1.O=C(O)C(F)(F)F.O=C(O)C(F)(F)F.O=C(O)C(F)(F)F.O=C(O)C(F)(F)F`, the minimum inhibitory concentration (MIC) in [1] turned out to be 0.125 µg/mL; in [2], 1 µg/mL; in assay [3], 0.25 µg/mL; in assay [4], 0.5 µg/mL; in assay [5], 2 µg/mL; in assay [6], 16 µg/mL. Moreover, the MIC stood at 0.25 µg/mL in [7], 0.25 µg/mL in assay [8], 32 µg/mL in [9] and 0.5 µg/mL in [10].

Consider `Cc1nc(-c2ccc(C(C)(C)C)cc2)ncc1NC(=O)N[C@@H](CCN)C(=O)N(C)[C@@H]1C(=O)N[C@@H](C)C(=O)N[C@H](C(=O)NCC#N)Cc2ccc(OCCN)c(c2)-c2cc1ccc2OCCN.O=C(O)C(F)(F)F.O=C(O)C(F)(F)F.O=C(O)C(F)(F)F.O=C(O)C(F)(F)F`, for which the MIC in assay [1] was 4 µg/mL; in assay [2] it was 8 µg/mL; in assay [3] it was 16 µg/mL; in [4] it was 16 µg/mL; in assay [5], 32 µg/mL; in assay [6], over 64 µg/mL. The MIC is 16 µg/mL in [7], 8 µg/mL in [8], over 64 µg/mL in assay [9] and 32 µg/mL in assay [10].

For the compound `Cc1nc(-c2ccc(CSSC(C)(C)C)c(F)c2)ncc1C(=O)N[C@@H](CCN)C(=O)N(C)[C@@H]1C(=O)N[C@@H](C)C(=O)N[C@H](C(=O)NCC#N)Cc2ccc(OCCN)c(c2)-c2cc1ccc2OCCN.O=C(O)C(F)(F)F.O=C(O)C(F)(F)F.O=C(O)C(F)(F)F.O=C(O)C(F)(F)F`, the MIC in assay [1] was 0.06 µg/mL; in assay [2], 1 µg/mL; in [3], 0.125 µg/mL; in [4], 0.25 µg/mL; in assay [5], 1 µg/mL; in assay [6], 4 µg/mL. Besides, the MIC was determined as 0.25 µg/mL in assay [7], 0.125 µg/mL in assay [8], 4 µg/mL in assay [9] and 0.25 µg/mL in assay [10].
